According to ChEMBL document CHEMBL5376004, “Discovery and Development of Quinazolinones and Quinazolinediones for Ameliorating Nonalcoholic Fatty Liver Disease (NAFLD) by Modulating COP1-ATGL Axis” (J Med Chem, 2023):
Values after ≈ are worked out from the molar mass of the structure shown. Values belong to the molecule of their own block, whether it stands above or below them. Active and inactive are the calls of the source. The rule behind the calls is not given here.

How the values were obtained:
COP1-AGTL (Homo sapiens) = COP1-AGTL (Homo sapiens) (UniProt Q96AD5+Q8NHY2); experiment: Induction of COP1 to ATGL stabilization (unknown origin) expressed in HEK293-A cells assessed as reduction in ATGL ubiquitination incubated for 6 hrs by Western blotting analysis; type: cell-based
[1] = Lipophilicity, logD of compound; type: physicochemical; settings: octanol/water
[2] = Aqueous solubility of compound at pH 7.4; type: physicochemical
[3] = Stability in human plasma assessed as compound remaining after 2 hrs; type: ADME, cell-free; settings: read-out: Stability
[4] = Metabolic stability in mouse liver microsomes assessed as intrinsic clearance per mg of protein; type: ADME, Microsome; settings: read-out: CLH
[5] = Metabolic stability in mouse liver microsomes assessed as half life; type: ADME, Microsome
[6] = Metabolic stability in mouse liver microsomes assessed as hepatic blood flow; type: ADME, Microsome; settings: read-out: QH
[7] = Stability in mouse plasma assessed as compound remaining after 2 hrs; type: ADME, cell-free; settings: read-out: Stability
[8] = Metabolic stability in human liver microsomes assessed as intrinsic clearance per mg of protein; type: ADME, Microsome; settings: read-out: CLH
[9] = Metabolic stability in human liver microsomes assessed as half life; type: ADME, Microsome
[10] = Metabolic stability in human liver microsomes assessed as hepatic blood flow; type: ADME, Microsome; settings: read-out: QH
Hepatocyte = experiment: Upregulation of ATGL protein level in mouse primary hepatocytes incubated for 24 hrs by Western blotting analysis; type: functional, cell-based; settings: dose 10-500 nM
HepG2 = experiment: Reduction in lipid droplets in human HepG2 cells by […] staining based confocal microscopic analysis; type: functional, cell-based

COP1-AGTL (Homo sapiens), sequence (Q8NHY2 whole entry, looked up): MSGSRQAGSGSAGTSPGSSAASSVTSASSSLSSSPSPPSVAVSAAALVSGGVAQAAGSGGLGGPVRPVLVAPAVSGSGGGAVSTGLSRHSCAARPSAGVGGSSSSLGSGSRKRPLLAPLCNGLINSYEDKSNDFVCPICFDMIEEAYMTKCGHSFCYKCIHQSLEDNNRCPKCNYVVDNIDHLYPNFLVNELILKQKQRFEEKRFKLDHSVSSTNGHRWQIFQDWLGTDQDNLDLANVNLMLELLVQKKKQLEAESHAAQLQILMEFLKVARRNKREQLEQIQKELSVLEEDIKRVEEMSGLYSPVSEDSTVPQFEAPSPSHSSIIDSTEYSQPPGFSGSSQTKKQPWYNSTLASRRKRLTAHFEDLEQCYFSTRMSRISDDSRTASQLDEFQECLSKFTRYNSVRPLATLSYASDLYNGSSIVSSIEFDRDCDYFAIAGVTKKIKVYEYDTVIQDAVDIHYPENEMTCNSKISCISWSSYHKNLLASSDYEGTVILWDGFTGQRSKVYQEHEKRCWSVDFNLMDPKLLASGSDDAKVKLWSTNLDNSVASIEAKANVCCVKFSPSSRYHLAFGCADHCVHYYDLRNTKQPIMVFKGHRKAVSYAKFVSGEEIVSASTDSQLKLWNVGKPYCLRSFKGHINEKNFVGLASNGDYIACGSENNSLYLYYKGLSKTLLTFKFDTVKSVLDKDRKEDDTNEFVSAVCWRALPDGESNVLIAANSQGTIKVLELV
COP1-AGTL (Homo sapiens), sequence (Q96AD5 whole entry, looked up): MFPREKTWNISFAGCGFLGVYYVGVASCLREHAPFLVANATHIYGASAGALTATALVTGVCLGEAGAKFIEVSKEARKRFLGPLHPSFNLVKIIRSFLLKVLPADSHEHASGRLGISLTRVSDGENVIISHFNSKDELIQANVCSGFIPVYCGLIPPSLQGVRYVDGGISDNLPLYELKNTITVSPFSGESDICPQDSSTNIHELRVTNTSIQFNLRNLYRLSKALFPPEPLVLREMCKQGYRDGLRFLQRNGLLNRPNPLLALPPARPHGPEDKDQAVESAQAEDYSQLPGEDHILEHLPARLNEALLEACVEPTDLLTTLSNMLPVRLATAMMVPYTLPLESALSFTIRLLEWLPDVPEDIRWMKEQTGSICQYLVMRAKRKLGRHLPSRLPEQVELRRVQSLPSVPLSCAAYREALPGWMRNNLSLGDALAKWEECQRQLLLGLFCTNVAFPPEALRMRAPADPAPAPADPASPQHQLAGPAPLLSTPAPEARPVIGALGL

SMILES: COCCn1cnc2ccc(NC(=O)Nc3ccccc3OC)cc2c1=O
- Activity (COP1-AGTL (Homo sapiens)): inactive

SMILES: COCCn1cnc2ccc(NC(=O)Nc3cccc(OC)c3)cc2c1=O
- Activity (COP1-AGTL (Homo sapiens)): Active
- logD [1]: 3.02
- solubility [2]: 21.5 µg/mL (≈ 58.4 µM)
- remaining at 2 h [7]: 84.5%
- remaining at 2 h [3]: 73.9%
- microsomal CLint [4]: 11 µL/min/mg
- half-life [5]: 1.05 h
- hepatic extraction ratio [6]: 0.231
- microsomal CLint [8]: 4.9 µL/min/mg
- half-life [9]: 2.4 h
- hepatic extraction ratio [10]: 0.184
- Activity (Hepatocyte): Dose-Dependent Effect
- Activity (HepG2): Active

SMILES: COCCn1cnc2ccc(NC(=O)Nc3cccc(C(C)=O)c3)c(-c3ccc(C(F)(F)F)cc3)c2c1=O
- Activity (COP1-AGTL (Homo sapiens)): inactive

SMILES: COCCn1cnc2ccc(NC(=O)Nc3ccc(OC)cc3)cc2c1=O
- Activity (COP1-AGTL (Homo sapiens)): Active

SMILES: CC(=O)c1cccc(NC(=O)Nc2ccc3ncn(CCN4CCCCC4)c(=O)c3c2)c1
- Activity (COP1-AGTL (Homo sapiens)): inactive

SMILES: COCCn1cnc2ccc(NC(=O)Nc3cccc(C(C)O)c3)cc2c1=O (stereo unspecified)
- Activity (COP1-AGTL (Homo sapiens)): inactive

SMILES: COCCn1cnc2ccc(NC(=O)Nc3cccc(C(C)=O)c3)c(Br)c2c1=O
- Activity (COP1-AGTL (Homo sapiens)): Active
- logD [1]: 1.95
- solubility [2]: 3.4 µg/mL (≈ 7.4 µM)
- remaining at 2 h [3]: 10.3%
- microsomal CLint [4]: 7.5 µL/min/mg
- half-life [5]: 1.78 h
- hepatic extraction ratio [6]: 0.167

SMILES: COCCn1cnc2ccc(NC(=O)Nc3cccc(C(C)=O)c3)c(C3CCNCC3)c2c1=O
- Activity (COP1-AGTL (Homo sapiens)): inactive

SMILES: COCCn1c(=O)[nH]c2ccc(NC(=O)Nc3cccc(C(C)=O)c3)cc2c1=O
- Activity (COP1-AGTL (Homo sapiens)): Active
- logD [1]: 2.17
- solubility [2]: 0.8 µg/mL (≈ 2.02 µM)
- remaining at 2 h [7]: 68.4%
- remaining at 2 h [3]: 97.4%
- microsomal CLint [4]: 11.4 µL/min/mg
- half-life [5]: 1.25 h
- hepatic extraction ratio [6]: 0.228
- microsomal CLint [8]: 1.8 µL/min/mg
- half-life [9]: 7.16 h
- hepatic extraction ratio [10]: 0.076

SMILES: CC(C)[N+](C)(CCOC(=O)C1c2ccccc2Oc2ccccc21)C(C)C [PROPANTHELINE]
- remaining at 2 h [7]: 0%

SMILES: COCCn1cnc2ccc(NC(=O)Nc3ccccc3C(F)(F)F)cc2c1=O
- Activity (COP1-AGTL (Homo sapiens)): inactive

SMILES: COCCn1cnc2ccc(NC(=O)Nc3ccc(C(F)(F)F)cc3)cc2c1=O
- Activity (COP1-AGTL (Homo sapiens)): inactive

SMILES: COCCn1cnc2ccc(NC(=O)Nc3cccc(C(=O)c4ccccc4)c3)cc2c1=O
- Activity (COP1-AGTL (Homo sapiens)): inactive

SMILES: CC(=O)c1cccc(NC(=O)Nc2ccc3nc[nH]c(=O)c3c2)c1
- Activity (COP1-AGTL (Homo sapiens)): inactive

SMILES: COCCn1c(=O)c2cc(NC(=O)Nc3cccc(C(C)=O)c3)ccc2n(CCN2CCCC2)c1=O
- Activity (COP1-AGTL (Homo sapiens)): Active
- logD [1]: 2.58
- solubility [2]: 124 µg/mL (≈ 252 µM)
- remaining at 2 h [7]: 50.3%
- remaining at 2 h [3]: 32.8%
- microsomal CLint [4]: 13 µL/min/mg
- half-life [5]: 0.895 h
- hepatic extraction ratio [6]: 0.26
- microsomal CLint [8]: 4.6 µL/min/mg
- half-life [9]: 2.56 h
- hepatic extraction ratio [10]: 0.175

SMILES: COCCn1cnc2ccc(NC(=O)Nc3cccc(C(C)=O)c3)c(C3=CCNCC3)c2c1=O
- Activity (COP1-AGTL (Homo sapiens)): inactive

SMILES: CC(=O)c1cccc(NC(=O)Nc2ccc3ncn(CCN4CCOCC4)c(=O)c3c2)c1
- Activity (COP1-AGTL (Homo sapiens)): inactive

SMILES: COCCCn1cnc2ccc(NC(=O)Nc3cccc(C(C)=O)c3)cc2c1=O
- Activity (COP1-AGTL (Homo sapiens)): Active

SMILES: COCCn1cnc2ccc(NC(=O)Nc3cccc(C(C)=O)c3)c(-c3ccc(OC)cc3)c2c1=O
- Activity (COP1-AGTL (Homo sapiens)): inactive

More lines, now with the values ahead:

- Activity (COP1-AGTL (Homo sapiens)): inactive
SMILES: CCn1cnc2ccc(NC(=O)Nc3cccc(C(C)=O)c3)cc2c1=O

- Activity (COP1-AGTL (Homo sapiens)): inactive
- logD [1]: 1.9
- solubility [2]: 31.9 µg/mL (≈ 67.2 µM)
- remaining at 2 h [3]: 44.9%
- microsomal CLint [4]: 456 µL/min/mg
- half-life [5]: 0.025 h
- hepatic extraction ratio [6]: 0.925
SMILES: COCCn1cnc2ccc(NC(=O)Nc3cccc(C(C)=O)c3)c(-c3ccc(F)cc3)c2c1=O

- Activity (COP1-AGTL (Homo sapiens)): inactive
SMILES: CC(=O)c1cccc(NC(=O)Nc2ccc3ncn(CCCN4CCOCC4)c(=O)c3c2)c1

- Activity (COP1-AGTL (Homo sapiens)): inactive
SMILES: COCCn1cnc2ccc(NC(=O)Nc3cccc(C(C)=O)c3)c(-c3ccc(OC)nc3)c2c1=O

- Activity (COP1-AGTL (Homo sapiens)): inactive
- logD [1]: 2.54
- solubility [2]: 27 µg/mL (≈ 61.9 µM)
- remaining at 2 h [7]: 118%
- remaining at 2 h [3]: 74.6%
- microsomal CLint [4]: 31.7 µL/min/mg
- half-life [5]: 0.367 h
- hepatic extraction ratio [6]: 0.462
- microsomal CLint [8]: 15.3 µL/min/mg
- half-life [9]: 0.753 h
- hepatic extraction ratio [10]: 0.415
SMILES: COCCn1cnc2ccc(NC(=O)Nc3cccc(C(O)C(F)(F)F)c3)cc2c1=O (stereo unspecified)

- Activity (COP1-AGTL (Homo sapiens)): inactive
SMILES: CCCCn1cnc2ccc(NC(=O)Nc3cccc(C(C)=O)c3)cc2c1=O

- Activity (COP1-AGTL (Homo sapiens)): Active
SMILES: COCCn1cnc2ccc(NC(=O)Nc3cccc(C(C)=O)c3)c(-c3ccccc3)c2c1=O

- Activity (COP1-AGTL (Homo sapiens)): inactive
SMILES: COCCn1cnc2ccc(NC(=O)Nc3cccc(C(F)(F)F)c3)cc2c1=O

- Activity (COP1-AGTL (Homo sapiens)): inactive
- logD [1]: 2.67
- solubility [2]: 2.8 µg/mL (≈ 6.39 µM)
- remaining at 2 h [7]: 90.7%
- remaining at 2 h [3]: 80.8%
- microsomal CLint [4]: 42.6 µL/min/mg
- half-life [5]: 0.272 h
- hepatic extraction ratio [6]: 0.536
- microsomal CLint [8]: 14.6 µL/min/mg
- half-life [9]: 0.793 h
- hepatic extraction ratio [10]: 0.403
SMILES: COCCn1c(=O)c2cc(NC(=O)Nc3cccc(C(C)=O)c3)ccc2n(C(C)C)c1=O

- Activity (COP1-AGTL (Homo sapiens)): Active
SMILES: COCCn1c(=O)c2cc(NC(=O)Nc3cccc(C(C)=O)c3)ccc2n(C)c1=O

- Activity (COP1-AGTL (Homo sapiens)): inactive
SMILES: COCCn1cnc2ccc(NC(=O)N3CCCCC3)cc2c1=O

- Activity (COP1-AGTL (Homo sapiens)): inactive
SMILES: CC(=O)c1cccc(NC(=O)Nc2ccc3ncn(CCN(C)C)c(=O)c3c2)c1

- Activity (COP1-AGTL (Homo sapiens)): inactive
SMILES: COCCn1cnc2ccc(NC(=O)NC3CCN(C)CC3)cc2c1=O

- Activity (COP1-AGTL (Homo sapiens)): inactive
SMILES: CCc1cccc(NC(=O)Nc2ccc3ncn(CCOC)c(=O)c3c2)c1

- Activity (COP1-AGTL (Homo sapiens)): inactive
- logD [1]: 4.25
- solubility [2]: 9.6 µg/mL (≈ 22.1 µM)
- remaining at 2 h [7]: 52.6%
- remaining at 2 h [3]: 62%
- microsomal CLint [4]: 8.2 µL/min/mg
- half-life [5]: 1.41 h
- hepatic extraction ratio [6]: 0.183
- microsomal CLint [8]: 7.7 µL/min/mg
- half-life [9]: 1.5 h
- hepatic extraction ratio [10]: 0.262
SMILES: COCCn1cnc2ccc(NC(=O)Nc3cccc(C(=O)C(F)(F)F)c3)cc2c1=O

- Activity (COP1-AGTL (Homo sapiens)): inactive
SMILES: COCCn1cnc2ccc(NC(=O)N(C)C)cc2c1=O

- Activity (COP1-AGTL (Homo sapiens)): inactive
SMILES: COCCn1cnc2ccc(NC(=O)Nc3ccc(F)cc3)cc2c1=O

- Activity (COP1-AGTL (Homo sapiens)): inactive
SMILES: COCCn1cnc2ccc(NC(=O)Nc3ccccc3)cc2c1=O
